Test results: paper PMC12227055 (Science Advances, 2025)
Blank lines part the entries; values can stand above or below the molecule they belong to.

How the values were obtained:
[1] = molecular target: T1, CryoR1 (Cryobacterium levicorallinum, UniProt A0A1I3DJQ0); assay: cryo-EM structure (light-accumulated M2 state), […] A; type: binding; conditions: covalent deprotonated Schiff base (K241); photoproduct formed in situ from all-trans-retinal; pH 10.5; 530/532 nm illumination
T1 construct: gene E3O11_09160
T1 sequence (A0A1I3DJQ0 3-327): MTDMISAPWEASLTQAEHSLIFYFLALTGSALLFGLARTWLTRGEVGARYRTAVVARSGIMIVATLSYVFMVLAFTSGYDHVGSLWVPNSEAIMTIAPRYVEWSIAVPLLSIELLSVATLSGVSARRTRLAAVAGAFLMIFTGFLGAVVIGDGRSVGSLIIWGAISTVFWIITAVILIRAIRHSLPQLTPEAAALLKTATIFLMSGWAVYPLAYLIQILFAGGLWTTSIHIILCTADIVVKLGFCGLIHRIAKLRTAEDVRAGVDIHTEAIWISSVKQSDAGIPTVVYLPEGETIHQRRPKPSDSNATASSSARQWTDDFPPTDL

[2] = molecular target: CryoRhodopsin 2 (CryoR2) from Subtercola sp. AK-R2A1-2 (Subtercola sp. AK-R2A1-2); assay: crystal structure
[3] = molecular target: CryoRhodopsin 2 (CryoR2) from Subtercola sp. AK-R2A1-2 (Subtercola sp. AK-R2A1-2); assay: cryo-EM structure
[4] = molecular target: T2, CryoR1 (Cryobacterium levicorallinum, UniProt A0A1I3DJQ0, R59T); assay: UV-Vis absorption and flash photolysis of purified holoprotein; type: binding; conditions: covalent Schiff base (K241); detergent; pH 8.0 and 10.5
T2 construct: gene E3O11_09160

[5] = molecular target: T3, CryoR4 (Subtercola vilae, UniProt A0A4T2CD69); assay: as above; type: binding; conditions: covalent Schiff base; detergent; pH 8.0
T3 construct: gene D4765_01930
T3 sequence (A0A4T2CD69 1-317): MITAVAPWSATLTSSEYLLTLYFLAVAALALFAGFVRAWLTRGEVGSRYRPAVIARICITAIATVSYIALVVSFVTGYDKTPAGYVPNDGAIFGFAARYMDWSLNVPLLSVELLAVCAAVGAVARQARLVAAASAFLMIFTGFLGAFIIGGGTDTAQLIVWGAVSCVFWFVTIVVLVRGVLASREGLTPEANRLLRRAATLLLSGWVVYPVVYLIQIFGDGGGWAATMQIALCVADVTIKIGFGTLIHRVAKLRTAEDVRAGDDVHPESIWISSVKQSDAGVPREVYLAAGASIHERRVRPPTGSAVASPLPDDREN

[6] = molecular target: T1, CryoR1; assay: cryo-EM structure (ground state); type: binding; conditions: covalent Schiff base (K241); pH 4.3, 8.0 and 10.5; detergent micelles or nanodisc
[7] = molecular target: T4, CryoR3 (Cryobacterium frigoriphilum, UniProt A0A4R8ZY77); assay: UV-Vis absorption and flash photolysis of purified holoprotein; type: binding; conditions: covalent Schiff base; detergent; pH 8.0
T4 construct: gene E3T55_12175
T4 sequence (A0A4R8ZY77 42-365): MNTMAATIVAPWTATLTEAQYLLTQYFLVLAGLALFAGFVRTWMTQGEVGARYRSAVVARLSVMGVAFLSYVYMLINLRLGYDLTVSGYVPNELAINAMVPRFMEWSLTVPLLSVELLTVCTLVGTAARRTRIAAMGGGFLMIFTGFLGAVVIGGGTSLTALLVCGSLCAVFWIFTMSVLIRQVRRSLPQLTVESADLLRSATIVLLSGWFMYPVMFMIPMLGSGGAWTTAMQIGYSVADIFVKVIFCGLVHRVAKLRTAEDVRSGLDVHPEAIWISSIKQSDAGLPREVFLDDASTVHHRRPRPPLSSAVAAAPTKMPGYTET

[8] = molecular target: T5, CryoR1_1–263 (Cryobacterium levicorallinum, UniProt A0A1I3DJQ0); assay: as above; type: binding; conditions: covalent Schiff base; detergent; pH 8.0
T5 construct: gene E3O11_09160
T5 sequence (A0A1I3DJQ0 3-265): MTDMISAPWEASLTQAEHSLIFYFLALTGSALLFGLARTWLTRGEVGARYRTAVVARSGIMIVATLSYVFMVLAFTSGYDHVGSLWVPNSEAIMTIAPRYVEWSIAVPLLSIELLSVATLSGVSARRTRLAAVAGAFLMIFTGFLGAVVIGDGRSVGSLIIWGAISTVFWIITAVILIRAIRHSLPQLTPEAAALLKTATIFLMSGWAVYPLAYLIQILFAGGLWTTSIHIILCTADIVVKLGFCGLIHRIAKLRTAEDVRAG

[9] = molecular target: T6, CryoR5 (Subtercola boreus, UniProt A0A3E0VLV3); assay: as above; type: binding; conditions: covalent Schiff base; detergent; pH 8.0
T6 construct: gene B7R54_12135
T6 sequence (A0A3E0VLV3 1-318): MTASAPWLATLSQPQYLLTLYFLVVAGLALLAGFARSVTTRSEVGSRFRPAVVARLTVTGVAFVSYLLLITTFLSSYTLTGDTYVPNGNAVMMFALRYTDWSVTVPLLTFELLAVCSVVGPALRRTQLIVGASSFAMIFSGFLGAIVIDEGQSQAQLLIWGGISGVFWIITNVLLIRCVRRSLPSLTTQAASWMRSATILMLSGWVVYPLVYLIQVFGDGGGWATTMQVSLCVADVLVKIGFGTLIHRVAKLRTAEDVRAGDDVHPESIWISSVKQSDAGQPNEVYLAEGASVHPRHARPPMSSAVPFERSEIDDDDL

[10] = molecular target: CryoRhodopsin 1 (CryoR1) from Cryobacterium levicorallinum, wild type (Cryobacterium levicorallinum); assay: SEC
[11] = molecular target: CryoRhodopsin 1 (CryoR1) from Cryobacterium levicorallinum, wild type (Cryobacterium levicorallinum); assay: cryo-EM structure
[12] = molecular target: CryoRhodopsin 1 (CryoR1) from Cryobacterium levicorallinum, wild type (Cryobacterium levicorallinum); assay: cryo-EM structure; remark: listed apart in the source

T2 sequence (A0A1I3DJQ0 entry or part of it R59T): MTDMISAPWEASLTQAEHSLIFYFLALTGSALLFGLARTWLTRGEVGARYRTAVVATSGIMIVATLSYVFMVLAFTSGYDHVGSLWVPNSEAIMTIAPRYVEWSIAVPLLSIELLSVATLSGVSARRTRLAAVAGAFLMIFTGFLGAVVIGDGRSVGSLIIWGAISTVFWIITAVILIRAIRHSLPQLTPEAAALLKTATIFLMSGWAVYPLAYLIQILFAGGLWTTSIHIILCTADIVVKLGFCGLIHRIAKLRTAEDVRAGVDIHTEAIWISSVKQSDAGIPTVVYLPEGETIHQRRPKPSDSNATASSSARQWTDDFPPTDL

Molecule: CC1=C(/C=C/C(C)=C/C=C/C(C)=C\C=O)C(C)(C)CCC1 [13-cis retinal]
- cryo-EM structure (light-accumulated M2 state), 2.3 A [1]: strongly suggests the 13-cis conformation of the cofactor in the M2 state

- stoichiometry N [2]: 5
- stoichiometry N [3]: 5
Molecule: CryoRhodopsin 2 (CryoR2) from Subtercola sp. AK-R2A1-2 (natural protein)

Molecule: CC1=C(/C=C/C(C)=C/C=C/C(C)=C/C=O)C(C)(C)CCC1 [all-trans-retinal]
- UV-Vis absorption and flash photolysis of purified holoprotein [4]: we studied the spectroscopic properties of the R57T mutant of CryoR1
- UV-Vis absorption and flash photolysis of purified holoprotein [5]: CryoR1-5 differ in their UV–visible (Vis) absorption spectra
- cryo-EM structure (ground state) [6]: presence of a single state, which we assigned to the ground state
- UV-Vis absorption and flash photolysis of purified holoprotein [7]: CryoR1-5 differ in their UV–visible (Vis) absorption spectra
- UV-Vis absorption and flash photolysis of purified holoprotein [8]: spectral properties of the truncated variant of CryoR1
- UV-Vis absorption and flash photolysis of purified holoprotein [9]: CryoR1-5 differ in their UV–visible (Vis) absorption spectra

- stoichiometry N [10]: 5
- stoichiometry N [11]: 5
- stoichiometry N [12]: 5
Molecule: CryoRhodopsin 1 (CryoR1) from Cryobacterium levicorallinum, wild type (natural protein)
